The target of the experiment is human GALK (Homo sapiens, UniProt P51570). Briefly: GALK inhibition in vitro. Type of experiment: biochemical. Conditions: unpublished data.

Drawing on paper PMC3253915 (Molecular Genetics and Metabolism, 2011), this text covers GALK inhibition for three compounds.

human GALK, sequence (P51570 whole entry): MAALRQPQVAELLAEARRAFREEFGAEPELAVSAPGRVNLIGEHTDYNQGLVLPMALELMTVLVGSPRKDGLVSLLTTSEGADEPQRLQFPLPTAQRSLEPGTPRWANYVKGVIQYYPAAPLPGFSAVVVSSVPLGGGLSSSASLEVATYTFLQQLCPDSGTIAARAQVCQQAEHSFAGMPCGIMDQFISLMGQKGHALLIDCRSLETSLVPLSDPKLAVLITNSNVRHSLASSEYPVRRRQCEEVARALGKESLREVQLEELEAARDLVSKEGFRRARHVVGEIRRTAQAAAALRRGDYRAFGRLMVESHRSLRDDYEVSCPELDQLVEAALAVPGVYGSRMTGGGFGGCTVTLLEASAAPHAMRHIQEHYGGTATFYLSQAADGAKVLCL

In the case of `O=CC[C@@H](O)[C@@H](O)[C@H](O)CO` [2-deoxygalactose], for the setting “galactose derivative”, the GALK inhibition entry is given as “did not result in GALK inhibition”.
As to `O=C(CO)[C@@H](O)[C@H](O)[C@H](O)CO` [fructose], the GALK inhibition entry (at low millimolar (mM) range) is listed as “no inhibition”.
On the same count and under the same terms, the value for `OC[C@H]1OC(O)[C@H](O)[C@@H](O)[C@@H]1O` (stereo partly drawn) [glucose] was “no inhibition”.
